According to article PMC10059125, “The Pharmaceutical Formulation Plays a Pivotal Role in Hydroxytyrosol Pharmacokinetics” (Pharmaceutics, 2023):
Like-named read-outs stand apart in the source and are kept apart here. Blank lines part the entries; values can stand above or below the molecule they belong to.

Key:
[1] = Urinary excretion of DOPET and metabolites in healthy volunteers after oral enteric-coated capsules; assay type: in vivo, human; details: for cumulative metabolites distribution in urine, mean relative area percentage with respect to all identified and unidentified compounds: 24 h urine, oral 15 mg (97.3 µmole) DOPET; for mean peak in urine: approximately 6 h after oral 15 mg (97.3 µmole) DOPET, n = 20
Procedure: (§1) The study protocol, approved by the local ethics committee (Register Protocol No. 146 17/05/2018), was conducted on 20 healthy Caucasian volunteers, aged 25–60 years with BMI ranging from 19 and 25 kg/m^2, enrolled at the University hospital facility of the Clinical Research Unit of the Department of Biomedicine and Prevention, University of Tor Vergata (Rome, Italy). Two enteric-coated capsules, each containing 7.5 mg of DOPET, were administered orally. All subjects fulfilled the following eligibility criteria: non-smokers, non-alcoholics, healthy diet, and no drugs during the experimental procedure. The administration was preceded by a 4-day washout with polyphenols and an alcoholic-free diet to avoid any interference, and by a 10-h fasting period. The study was conducted in compliance with the Declaration of Helsinki, and the selected subjects agreed to the procedure by reviewing and signing the relevant, informed consensus.
Urine samples were collected at baseline (T0) and, after the intervention, at the following mean times: 3.45, 4.18, 5.14, 6.16, 8.19, 12, and 24 h in sterile, dark polystyrene tubes (100 mL) with screw caps with 10% L-ascorbic acid as a chemical preservative. Both plasma and urine samples were immediately shipped in dry ice to the Department of Chemical, Biological, Pharmaceutical and Environmental Sciences, University of Messina (Italy) for chemical analyses, stored at −80 °C and processed within 48 h.
(§2) Plasma and urine samples were processed, before and after hydrolysis, according to Alemán-Jiménez et al., with some modifications. Briefly, plasma and urine samples were thawed at room temperature and centrifuged (10,000× g for 5 min). Sample supernatants (100 and 400 μL, respectively) were hydrolyzed by incubation with 300 UI (plasma) and 1500 UI (urine) of β-glucuronidase from Helix pomatia for 2 h at 37 °C, clarified with 200 μL of MeOH/HCl (0.2 M) and centrifuged at 10,000× g for 5 min. An SPE clean-up step, by using Strata X-AW cartridges (Phenomenex, Torrance, CA, USA) mounted on VacElut Cartridge Manifolds (Agilent Technologies, Inc., Santa Clara, CA, USA), was carried out. Cartridges were conditioned and equilibrated with 2 mL of MeOH/HCOOH (98:2, v/v) and 2 mL of water/HCOOH (98:2, v/v), respectively. After sample loading, SPE cartridges were washed with water/HCOOH (98:2, v/v). Analytes were eluted with 1 mL of MeOH/HCOOH (98:2, v/v) and dried by a gentle stream of nitrogen at room temperature. Extracts were recovered with 200 μL of the mobile phase used for the LC-DAD-ESI-MS/MS analyses (see Section 2.4). Quality control samples were prepared by spiking DOPET and metabolites (DOPAC, HVA, and MOPET) in baseline control plasma and urine samples at two different concentrations (1.2 ng/mL and 5.3 ng/mL) correspondent to the limit of quantification (LOQ) in plasma and urine samples, respectively. Both precision (CV < 10%) and accuracy (≥90%) recorded in three replicates were acceptable according to ICH and FDA guidelines.
(§3) Plasma and urinary DOPET and metabolites were analyzed by LC-DAD-ESI-MS/MS (Agilent Technologies, Inc., Santa Clara, CA, USA). Chromatographic analysis was carried out by a Luna Omega PS C18 column (150 mm × 2.1 mm, 5 µm; Phenomenex, Torrance, CA, USA) at 25 °C by using a mobile phase consisting of 0.1% HCOOH (Solvent A) and methanol (Solvent B) according to the following elution program: 0–18 min, 5% B; 18–21 min, 95% B; 21–30 min, 5% B; 30–35 min, 5%. The injection volume was 10 µL, and the flow rate was 0.4 mL/min. The UV–Vis spectra were recorded, ranging from 190 to 400 nm, and chromatograms were acquired at 280 nm. […]

[2] = parameters: method as in PMID 20045462; details: single oral dose 2.5 mg/kg b.w., 10 subjects; cited from earlier work
[3] = parameters: method as in doi:10.1016/j.jff.2016.02.046; details: cited from earlier work
[4] = parameters: method as in doi:10.1016/j.foodchem.2011.07.101; details: after chronic or acute consumption of olive leaf supplements, 55 healthy young adults; cited from earlier work
[5] = parameters: method as in PMID 10692578; details: 24 h; enriched olive oils, 6 healthy male volunteers; cited from earlier work
[6] = parameters: method as in PMID 23766098; details: cited from earlier work; for Cmax: olive leaf extract
[7] = parameters: method as in PMID 12765992; details: 25 mL of EVOO, 6 healthy volunteers; cited from earlier work
[8] = Plasma pharmacokinetics of free DOPET in healthy volunteers after oral enteric-coated capsules (DOPET in EVOO), non-compartmental analysis; assay type: in vivo, human
Procedure: as §1
Blood samples were collected into 10 mL test tubes containing EDTA from a subcutaneous vein using a permanent catheter inserted into the forearm at baseline (T0) and 45, 90, 123, 150, 184, 247, 386, and 440 min. Samples were centrifuged at 1700× g for 10 min at 4 °C and the obtained plasma was aliquoted into test tubes containing citric acid (2 M, 10% v/v).
as §2
as §3, with “nm. The experimental parameters of the mass spectrometer (ion trap, model 6320, Agilent Technologies, Santa Clara, CA, USA) equipped with an electrospray ionization interface operating in the negative (ESI−) and positive (ESI+) ionization mode were set as follows: 3.5 kV capillary voltage, 40 psi nebulizer (N2) pressure, 350 °C drying gas temperature, 9 L/min drying gas flow, and 40 V skimmer voltage. The acquisition was carried out in full-scan mode (90–1000 m/z).” for “nm.”

[9] = parameters: method as in PMID 28452954; details: in vitro; cited from earlier work
[10] = parameters: method as in PMID 32524230; details: 5 mg DOPET conveyed in EVOO, 20 volunteers; cited from earlier work
[11] = parameters: method as in PMID 17870451; details: 100 g of olives containing 76.73 mg of DOPET, 7 healthy men; cited from earlier work
[12] = human, mean, n = 20, free DOPET in plasma, oral 15 mg DOPET (2 cps)

Structure (SMILES): O=C(O)Cc1ccc(O)c(O)c1 [DOPAC, 3,4-dihydroxyphenylacetic acid]
cumulative metabolites distribution in urine, mean relative area percentage with respect to all identified and unidentified compounds [1]: 13.48%
mean peak in urine [1]: 9.93 µmol

Structure (SMILES): COc1cc(CC(=O)O)ccc1O [HVA, homovanillic acid]
mean peak in urine [1]: 18.39 µmol

Structure (SMILES): C/C=C1/[C@H](O[C@@H]2O[C@H](CO)[C@@H](O)[C@H](O)[C@H]2O)OC=C(C(=O)OC)[C@H]1CC(=O)OCCc1ccc(O)c(O)c1 [oleuropein]
detection in urine samples [4]: neither oleuropein nor DOPET was detected

Structure (SMILES): OCCc1ccc(O)cc1 [tyrosol]
urine excretion with respect to the dose administered [5]: 21–24%

Now from value to molecule, other results behind:

cumulative metabolites distribution in urine, mean relative area percentage with respect to all identified and unidentified compounds [1]: 8.49%
mean peak in urine [1]: 4.67 µmol
bioavailability compared with the literature ([8]; enteric-coated capsule, DOPET in EVOO, versus previous results at the same dose administered): about 2.5 times
Cmax ([8]; human, plasma, po, 15 mg, mean, n = 20, free DOPET in plasma, oral 15 mg DOPET (2 cps), read-out: Cmax): 0.0055 µg/mL
Tmax [8, 12]: 2.05 h
half-life [8, 12]: 2.51 h
AUCextrap_pred ([8]; mean, n = 20, fraction of total AUC due to extrapolated AUC, oral 15 mg DOPET): 18.23%
Cmax ([8]; mean, n = 20, free DOPET in plasma, oral 15 mg DOPET (2 cps)): 0.00548 µg/mL
Structure (SMILES): OCCc1ccc(O)c(O)c1 [DOPET, 3,4-dihydroxyphenyl ethanol]
Cmax [2]: 1.11 µM
time of maximum plasma concentration [2]: 13 min
urine levels of DOPET and its metabolites, share of the DOPET administered ([3]; 5 mg of DOPET/day for one week): 21%
urine levels of DOPET and its metabolites, share of the DOPET administered ([3]; 25 mg of DOPET/day for one week): 28%
forms of DOPET excreted in urine ([3]; 5 or 25 mg of DOPET/day for one week): 0–0.02%
detection in urine samples [4]: neither oleuropein nor DOPET was detected
urine excretion with respect to the dose administered [5]: 29–40%
Cmax ([6]; capsule matrix): 0.056 µg/mL
Cmax ([6]; liquid matrix): 0.059 µg/mL
decrease of Tmax ([6]; passing from encapsulated to the liquid formulation): about 30 min
Cmax [7]: 0.02583 µg/mL
Tmax [7]: 0.967 h
genotoxicity or mutagenicity [9]: does not exhibit any genotoxicity or mutagenicity
Cmax [10]: 0.00379 µg/mL
time to Cmax [10]: 30 min
plasma concentration at Cmax [11]: 3.15 µg/mL
time to Cmax [11]: 1 h

cumulative metabolites distribution in urine, mean relative area percentage with respect to all identified and unidentified compounds [1]: 0.94%
mean peak in urine [1]: 0.44 µmol
Structure (SMILES): COc1cc(CCO)ccc1O [MOPET, 4-hydroxy-3-methoxyphenethanol]
